Source: PMC6331977, “Bioassay-Guided Isolation and Identification of Xanthine Oxidase Inhibitory Constituents from the Leaves of Perilla frutescens” (Molecules, 2015)

Tests used:
xanthine oxidase (XO) [1] = target: T1, xanthine oxidase (XO) (Bos taurus, UniProt P80457); test: Assay of XO inhibitory modes of action (enzyme kinetics, Lineweaver-Burk plots); details: for Mode of Inhibition: Lineweaver-Burk plots
xanthine oxidase (XO) [2] = target: T1, xanthine oxidase (XO); test: Assay of XO activity (uric acid formation determined by HPLC); type: biochemical; design: purchased Sigma-Aldrich Chemicals (St. Louis, MO, USA); details: for XO inhibitory activity (in words): in vitro; for IC50: xanthine as substrate, 25 °C, pH 7.5, uric acid by HPLC

T1 sequence (P80457 whole entry): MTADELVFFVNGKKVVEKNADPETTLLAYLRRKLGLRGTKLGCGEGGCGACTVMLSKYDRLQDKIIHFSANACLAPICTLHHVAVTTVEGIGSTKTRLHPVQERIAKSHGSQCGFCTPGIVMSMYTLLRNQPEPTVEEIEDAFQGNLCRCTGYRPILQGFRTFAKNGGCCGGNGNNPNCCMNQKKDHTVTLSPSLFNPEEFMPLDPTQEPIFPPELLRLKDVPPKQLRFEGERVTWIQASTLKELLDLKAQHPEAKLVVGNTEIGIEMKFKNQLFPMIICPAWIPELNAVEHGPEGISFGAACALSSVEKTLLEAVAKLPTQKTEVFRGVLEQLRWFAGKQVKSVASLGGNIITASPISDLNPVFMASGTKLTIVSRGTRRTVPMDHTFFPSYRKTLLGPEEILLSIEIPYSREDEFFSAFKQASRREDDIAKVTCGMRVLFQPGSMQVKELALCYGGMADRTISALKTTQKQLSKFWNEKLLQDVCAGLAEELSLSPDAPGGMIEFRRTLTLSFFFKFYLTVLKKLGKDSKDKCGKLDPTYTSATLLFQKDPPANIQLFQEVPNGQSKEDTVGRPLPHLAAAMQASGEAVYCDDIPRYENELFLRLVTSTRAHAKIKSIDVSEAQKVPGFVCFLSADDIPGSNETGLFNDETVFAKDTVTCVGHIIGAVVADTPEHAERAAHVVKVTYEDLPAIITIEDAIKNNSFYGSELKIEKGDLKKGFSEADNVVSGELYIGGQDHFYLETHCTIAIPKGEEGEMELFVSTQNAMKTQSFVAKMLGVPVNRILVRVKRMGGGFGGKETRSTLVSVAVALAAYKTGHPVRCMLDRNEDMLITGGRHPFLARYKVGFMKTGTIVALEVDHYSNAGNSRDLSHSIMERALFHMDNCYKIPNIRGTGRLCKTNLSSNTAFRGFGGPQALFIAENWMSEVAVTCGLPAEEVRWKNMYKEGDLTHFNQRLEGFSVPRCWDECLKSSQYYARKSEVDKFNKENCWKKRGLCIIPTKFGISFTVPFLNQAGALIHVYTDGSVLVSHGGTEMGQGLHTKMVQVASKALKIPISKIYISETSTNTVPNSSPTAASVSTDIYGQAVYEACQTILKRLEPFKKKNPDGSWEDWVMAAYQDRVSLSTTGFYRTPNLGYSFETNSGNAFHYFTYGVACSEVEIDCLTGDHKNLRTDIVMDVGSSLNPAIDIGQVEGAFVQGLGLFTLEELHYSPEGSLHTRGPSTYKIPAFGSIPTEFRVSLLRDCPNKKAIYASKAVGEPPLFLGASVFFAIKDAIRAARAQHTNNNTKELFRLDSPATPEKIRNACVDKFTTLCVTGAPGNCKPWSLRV

Row | SMILES | Mode of Inhibition (xanthine oxidase (XO) [1]) | Ki (xanthine oxidase (XO) [1]) [µM] | Mode of Inhibition (xanthine oxidase (XO) [1]; listed as apigenin) | IC50 (xanthine oxidase (XO) [2]) [µM] | Mode of Inhibition (xanthine oxidase (XO) [1]; listed as allopurinol) | XO inhibitory activity (in words) (xanthine oxidase (XO) [2])
1 | Oc1ncnc2[nH]ncc12 [Allopurinol, reference compound] | Competitive | – | – | – | competitive inhibitions | –
2 | O=C(O)/C=C/c1ccc(O)c(O)c1 [Caffeic acid, caffeic acid] | – | 9.22 | – | 121 | – | –
3 | O=C(/C=C/c1ccc(O)c(O)c1)O[C@H](Cc1ccc(O)c(O)c1)C(=O)O [Rosmarinic acid, rosmarinic acid] | Competitive | 26.2 | – | 91.7 | – | weak XO inhibitory activities

More lines, main results first:

Row | Mode of Inhibition (xanthine oxidase (XO) [1]) | Ki (xanthine oxidase (XO) [1]) [µM] | Mode of Inhibition (xanthine oxidase (XO) [1]; listed as apigenin) | IC50 (xanthine oxidase (XO) [2]) [µM] | SMILES | Mode of Inhibition (xanthine oxidase (XO) [1]; listed as allopurinol) | XO inhibitory activity (in words) (xanthine oxidase (XO) [2])
4 | Mixed | 0.11 | mixed inhibition mode | 0.44 | O=c1cc(-c2ccc(O)cc2)oc2cc(O)cc(O)c12 [Apigenin, apigenin] | – | could significantly inhibit the production of uric acid
5 | Competitive | 2.85 | – | 26.6 | COC(=O)[C@@H](Cc1ccc(O)c(O)c1)OC(=O)/C=C/c1ccc(O)c(O)c1 [Methyl rosmarinate, methyl rosmarinate] | – | could significantly inhibit the production of uric acid
6 | Competitive | 5.05 | – | 31.3 | C=COC(=O)/C=C/c1ccc(O)c(O)c1 [Vinyl caffeate, vinyl caffeate] | – | could significantly inhibit the production of uric acid
